target: T1, human TLR8 (Homo sapiens, UniProt Q9NR97); experiment: HEK293-Blue-hTLR-8 cells assay; type: cell-based; conditions: HEK293-Blue-hTLR8 cells, SEAP reporter, R848 stimulation, 20 hrs
T1 sequence (Q9NR97 27-1041): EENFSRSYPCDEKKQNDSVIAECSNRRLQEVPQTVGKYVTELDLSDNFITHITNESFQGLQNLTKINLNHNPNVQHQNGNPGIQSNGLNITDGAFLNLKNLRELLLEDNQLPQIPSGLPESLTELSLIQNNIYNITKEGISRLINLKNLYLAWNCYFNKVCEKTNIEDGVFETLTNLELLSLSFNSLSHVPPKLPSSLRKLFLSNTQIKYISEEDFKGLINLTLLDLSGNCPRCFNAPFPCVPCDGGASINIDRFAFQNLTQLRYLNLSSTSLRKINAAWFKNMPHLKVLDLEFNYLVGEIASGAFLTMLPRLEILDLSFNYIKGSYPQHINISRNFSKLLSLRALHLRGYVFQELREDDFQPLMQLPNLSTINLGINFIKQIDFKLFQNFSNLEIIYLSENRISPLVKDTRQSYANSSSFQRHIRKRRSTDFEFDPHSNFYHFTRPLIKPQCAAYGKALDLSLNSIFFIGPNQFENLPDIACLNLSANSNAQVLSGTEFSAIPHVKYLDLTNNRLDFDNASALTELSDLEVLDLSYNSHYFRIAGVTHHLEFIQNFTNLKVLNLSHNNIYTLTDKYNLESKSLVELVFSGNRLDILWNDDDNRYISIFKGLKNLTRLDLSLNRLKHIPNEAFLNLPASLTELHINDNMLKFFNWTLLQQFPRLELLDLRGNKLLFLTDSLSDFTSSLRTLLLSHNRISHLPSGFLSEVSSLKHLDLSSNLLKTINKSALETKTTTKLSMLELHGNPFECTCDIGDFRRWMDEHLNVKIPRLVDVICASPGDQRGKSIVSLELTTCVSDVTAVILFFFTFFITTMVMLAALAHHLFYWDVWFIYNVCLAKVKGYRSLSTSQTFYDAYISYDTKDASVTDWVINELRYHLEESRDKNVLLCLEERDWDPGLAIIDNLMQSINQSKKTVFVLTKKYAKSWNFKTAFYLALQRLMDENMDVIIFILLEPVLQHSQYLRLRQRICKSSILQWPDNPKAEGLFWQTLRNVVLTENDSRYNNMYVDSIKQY
From the text: HEK293-Blue-hTLR-8 Cells Assay:
A stable HEK293-Blue-hTLR-8 cell line was purchased from InvivoGen (Cat. #: hkb-htlr8, San Diego, Calif., USA). These cells were originally designed for studying the stimulation of human TLR8 by monitoring the activation of NF-κB. A SEAP (secreted embryonic alkaline phosphatase) reporter gene was placed under the control of the IFN-β minimal promoter fused to five NF-κB and AP-1-binding sites. The SEAP was induced by activating NF-κB and AP-1 via stimulating HEK-Blue hTLR8 cells with TLR8 ligands. Therefore the reporter expression was declined by TLR8 antagonist under the stimulation of a ligand, such as R848, for incubation of 20 hrs. The cell culture supernatant SEAP reporter activity was determined using QUANTI-Blue™ kit (Cat. #: rep-qb1, Invivogen, San Diego, Ca, USA) at a wavelength of 640 nm, a detection medium that turns purple or blue in the presence of alkaline phosphatase.
HEK293-Blue-hTLR8 cells were incubated at a density of 250,000-450,000 cells/mL in a volume of 170 μL in a 96-well plate in Dulbecco's Modified Eagle's medium (DMEM) containing 4.5 g/L glucose, 50 U/mL penicillin, […], […], 2 mM L-glutamine, 10% (v/v) heat-inactivated fetal bovine serum with addition of 20 μL test compound in a serial dilution in the presence of final DMSO at 1% and 10 sL of 60 uM R848 in above DMEM, perform incubation under 37° C. in a CO2 incubator for 20 hrs. Then 20 μL of the supernatant from each well was incubated with 180 sL Quanti-blue substrate solution at 37° C. for 2 hrs and the absorbance was read at 620˜655 nm using a spectrophotometer. The signalling pathway that TLR8 activation leads to downstream NF-κB activation has been widely accepted, and therefore similar reporter assay was modified for evaluating TLR8 antagonist.

Row | IC50 | SMILES
1 | 216 nM | O=C(NC1C2CCCC1CNC2)C1CN(c2ccc(C(F)(F)F)c3nccnc23)CC12CC2 (stereo not shown) [Example 8, N-(3-azabicyclo[3.3.1]nonan-9-yl)-5-[8-(trifluoromethyl)quinoxalin-5-yl]-5-azaspiro[2.4]heptane-7-carboxamide]
2 | 30 nM | CN1CCC(NC(=O)C2CN(c3ccc(C(F)(F)F)c4nccnc34)CC23CC3)CC1 (stereo not shown) [Example 11, N-(1-methyl-4-piperidyl)-5-[8-(trifluoromethyl)quinoxalin-5-yl]-5-azaspiro[2.4]heptane-7-carboxamide]
3 | 227 nM | O=C(NC1C2CCC1CNC2)C1CN(c2ccc(C(F)(F)F)c3nccnc23)CC12CC2 (stereo not shown) [Example 12, N-(3-azabicyclo[3.2.1]octan-8-yl)-5-[8-(trifluoromethyl)quinoxalin-5-yl]-5-azaspiro[2.4]heptane-7-carboxamide]
4 | 156 nM | O=C(NC1CC2CNCC(C2)C1)C1CN(c2ccc(C(F)(F)F)c3nccnc23)CC12CC2 (stereo not shown) [Example 15, N-(3-azabicyclo[3.3.1]nonan-7-yl)-5-[8-(trifluoromethyl)quinoxalin-5-yl]-5-azaspiro[2.4]heptane-7-carboxamide]
5 | 369 nM | CN1CC(NC(=O)C2CN(c3ccc(C(F)(F)F)c4nccnc34)CC23CC3)C2(CC2)C1 (stereo not shown) [Example 20, N-(5-methyl-5-azaspiro[2.4]heptan-7-yl)-5-[8-(trifluoromethyl)quinoxalin-5-yl]-5-azaspiro[2.4]heptane-7-carboxamide]
6 | 77 nM | O=C(NC1CC2CNCC2C1)C1CN(c2ccc(C(F)(F)F)c3nccnc23)CC12CC2 (stereo not shown) [Example 21, N-(1,2,3,3a,4,5,6,6a-octahydrocyclopenta[c]pyrrol-5-yl)-5-[8-(trifluoromethyl)quinoxalin-5-yl]-5-azaspiro[2.4]heptane-7-carboxamide]
7 | 65 nM | NC1CC2(C1)CC(NC(=O)C1CN(c3ccc(C(F)(F)F)c4nccnc34)CC13CC3)C2 (stereo not shown) [Example 22, N-(6-aminospiro[3.3]heptan-2-yl)-5-[8-(trifluoromethyl)quinoxalin-5-yl]-5-azaspiro[2.4]heptane-7-carboxamide]
8 | 175 nM | N[C@H]1CC[C@H](NC(=O)C2CN(c3ccc(C(F)(F)F)c4nccnc34)CC23CC3)CC1 (stereo partly shown) [Example 24, N-(4-aminocyclohexyl)-5-[8-(trifluoromethyl)quinoxalin-5-yl]-5-azaspiro[2.4]heptane-7-carboxamide]
9 | 152 nM | C[C@@H]1CN(c2ccc(C(F)(F)F)c3nccnc23)C[C@H]1C(=O)NC1CCN(C)CC1 [Example 25, (3S,4S)-4-Methyl-N-(1-methyl-4-piperidyl)-1-[8-(trifluoromethyl)quinoxalin-5-yl]pyrrolidine-3-carboxamide]
10 | 44 nM | CN(C)CC1CC(NC(=O)C2CN(c3ccc(C(F)(F)F)c4nccnc34)CC23CC3)C1 (stereo not shown) [Example 26, N-[3-[(dimethylamino)methyl]cyclobutyl]-5-[8-(trifluoromethyl)quinoxalin-5-yl]-5-azaspiro[2.4]heptane-7-carboxamide]
11 | 167 nM | NC1CC(CNC(=O)C2CN(c3ccc(C(F)(F)F)c4nccnc34)CC23CC3)C1 (stereo not shown) [Example 31, N-[(3-aminocyclobutyl)methyl]-5-[8-(trifluoromethyl)quinoxalin-5-yl]-5-azaspiro[2.4]heptane-7-carboxamide]
12 | 75 nM | Cc1ccc(N2C[C@H](C(=O)NC3CCN(C)CC3)[C@@H](C)C2)c2nccnc12 [Example 33, (3R,4R)-4-Methyl-N-(1-methyl-4-piperidyl)-1-(8-methylquinoxalin-5-yl)pyrrolidine-3-carboxamide]
13 | 437 nM | O=C(NC1CC2(CCNCC2)C1)C1CN(c2ccc(C(F)(F)F)c3nccnc23)CC12CC2 (stereo not shown) [Example 34, N-(7-azaspiro[3.5]nonan-2-yl)-5-[8-(trifluoromethyl)quinoxalin-5-yl]-5-azaspiro[2.4]heptane-7-carboxamide]
14 | 38 nM | N#Cc1ccc(N2C[C@H](C(=O)NC3CCN(C4CCNCC4)CC3)[C@@H](C(F)(F)F)C2)c2nccnc12 [Example 35, (3R,4R)-1-(8-Cyanoquinoxalin-5-yl)-N-[1-(4-piperidyl)-4-piperidyl]-4-(trifluoromethyl)pyrrolidine-3-carboxamide]
15 | 251 nM | N[C@@H]1C[C@H](NC(=O)C2CN(c3ccc(C(F)(F)F)c4nccnc34)CC23CC3)[C@@H]2C[C@@H]21 (stereo partly drawn) [Example 36, N-[(1R,2S,4R,5S)-4-amino-2-bicyclo[3.1.0]hexanyl]-5-[8-(trifluoromethyl)quinoxalin-5-yl]-5-azaspiro[2.4]heptane-7-carboxamide]
16 | 172 nM | NC1CC(NC(=O)C2CN(c3ccc(C(F)(F)F)c4nccnc34)CC23CC3)C1 (stereo not shown) [Example 38, N-(3-Aminocyclobutyl)-5-[8-(trifluoromethyl)quinoxalin-5-yl]-5-azaspiro[2.4]heptane-7-carboxamide]
17 | 447 nM | N[C@H]1CC[C@@H](NC(=O)C2CN(c3ccc(C(F)(F)F)c4nccnc34)CC23CC3)CC1 (stereo partly shown) [Example 39, N-(4-Aminocyclohexyl)-5-[8-(trifluoromethyl)quinoxalin-5-yl]-5-azaspiro[2.4]heptane-7-carboxamide]
18 | 404 nM | C[C@H]1CN(c2ccc(C#N)n3nccc23)C[C@@H]1C(=O)NC1CCN(C)CC1 [Example 44, (3R,4R)-1-(7-cyanopyrazolo[1,5-a]pyridin-4-yl)-4-methyl-N-(1-methyl-4 piperidyl)pyrrolidine-3-carboxamide]

Row | SMILES | IC50
19 | O=C(NC1CC2COCC(C1)N2)C1CN(c2ccc(C(F)(F)F)c3nccnc23)CC12CC2 (stereo not shown) [Example 6, N-(3-oxa-9-azabicyclo[3.3.1]nonan-7-yl)-5-[8-(trifluoromethyl)quinoxalin-5-yl]-5-azaspiro[2.4]heptane-7-carboxamide] | 291 nM
20 | O=C(NC1CC2CCCC(C1)N2)C1CN(c2ccc(C(F)(F)F)c3nccnc23)CC12CC2 (stereo not shown) [Example 10, N-(9-azabicyclo[3.3.1]nonan-3-yl)-5-[8-(trifluoromethyl)quinoxalin-5-yl]-5-azaspiro[2.4]heptane-7-carboxamide] | 245 nM
21 | N#Cc1ccc(N2CC(C(=O)NCC3CNCCO3)C3(CC3)C2)c2nccnc12 (stereo not shown) [Example 13, 5-(8-Cyanoquinoxalin-5-yl)-N-(morpholin-2-ylmethyl)-5-azaspiro[2.4]heptane-7-carboxamide] | 48 nM
22 | C[C@H]1CN(c2ccc(C#N)c3ncccc23)C[C@@H]1C(=O)NC1CCN(C)CC1 [Example 16, (3R,4R)-1-(8-cyano-5-quinolyl)-4-methyl-N-(1-methyl-4-piperidyl)pyrrolidine-3-carboxamide] | 72 nM
23 | CN1CCC(NC(=O)C2CN(c3ccc(C#N)c4ncccc34)CC2C(F)(F)F)CC1 (stereo not shown) [Example 18, 1-(8-Cyano-5-quinolyl)-N-(1-methyl-4-piperidyl)-4-(trifluoromethyl)pyrrolidine-3-carboxamide] | 75 nM
24 | O=C(NC1CC2CCC(C1)N2)C1CN(c2ccc(C(F)(F)F)c3nccnc23)CC12CC2 (stereo not shown) [Example 23, N-(8-azabicyclo[3.2.1]octan-3-yl)-5-[8-(trifluoromethyl)quinoxalin-5-yl]-5-azaspiro[2.4]heptane-7-carboxamide] | 243 nM
25 | C[C@H]1CN(c2ccc([N+](=O)[O-])c3ncccc23)C[C@@H]1C(=O)NC1CCN(C)CC1 [Example 27, (3R,4R)-4-Methyl-N-(1-methyl-4-piperidyl)-1-(8-nitro-5-quinolyl)pyrrolidine-3-carboxamide] | 52 nM

From patent publication US20210323977A1, “PYRROLIDINYL AMIDE COMPOUNDS FOR THE TREATMENT OF AUTOIMMUNE DISEASE” (Hoffmann-La Roche Inc., priority 2018, published 2021)
